pIC50, pKi: −log10 of the molar value.
Assays:
Type in all cases: biochemical
PKCθ = biological target: T1, PKCθ (Homo sapiens, UniProt Q04759); test: Ki Pan Vera (PV) potency for PKCθ; conditions: Ki Pan Vera (PV) of PKCθ
T1 construct: purchased Pan Vera
Procedure: (§1) For Ki Pan Vera (PV) of PKCθ, entries identified with “A” had values below 100 nM; entries identified with “B” had values below 1 μM; and entries identified with “C” had values below 10 μM.

PKC delta = biological target: T2, PKC delta (Homo sapiens, UniProt Q05655); test: Ki Pan Vera (PV) potency for PKC delta; conditions: Ki Pan Vera (PV) of PKC delta
T2 construct: purchased Pan Vera
Procedure: [The source words this procedure for another target and reports this target under the same test.] as §1

PKC alpha = biological target: T3, PKC alpha (Homo sapiens, UniProt P17252); test: Ki Pan Vera (PV) potency for PKC alpha; conditions: Ki Pan Vera (PV) of PKC alpha
T3 construct: purchased Pan Vera
Procedure: [The source words this procedure for another target and reports this target under the same test.] as §1

SGK kinase = biological target: T4, SGK kinase (Homo sapiens, UniProt O00141); test: IC50 for SGK kinase (selectivity); conditions: for pIC50: read-out: IC50-SGK1
T4 sequence (O00141 1-431): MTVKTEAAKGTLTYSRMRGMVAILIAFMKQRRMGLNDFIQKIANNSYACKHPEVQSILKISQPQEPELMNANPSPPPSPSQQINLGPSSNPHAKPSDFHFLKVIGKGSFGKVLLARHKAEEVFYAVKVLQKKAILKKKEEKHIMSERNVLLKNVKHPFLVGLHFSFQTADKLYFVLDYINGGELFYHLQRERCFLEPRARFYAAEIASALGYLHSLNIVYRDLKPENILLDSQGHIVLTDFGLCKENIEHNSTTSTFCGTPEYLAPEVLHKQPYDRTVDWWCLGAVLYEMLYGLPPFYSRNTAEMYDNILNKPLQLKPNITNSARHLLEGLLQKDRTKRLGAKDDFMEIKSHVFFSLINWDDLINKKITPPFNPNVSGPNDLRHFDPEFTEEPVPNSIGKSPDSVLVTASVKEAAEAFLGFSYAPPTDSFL
Procedure: Entries identified with “1” had values above 250 nM; entries identified with “2” had values above 1 μM; entries identified with “3” had values above 10 μM.

T1 sequence (Q04759 whole entry): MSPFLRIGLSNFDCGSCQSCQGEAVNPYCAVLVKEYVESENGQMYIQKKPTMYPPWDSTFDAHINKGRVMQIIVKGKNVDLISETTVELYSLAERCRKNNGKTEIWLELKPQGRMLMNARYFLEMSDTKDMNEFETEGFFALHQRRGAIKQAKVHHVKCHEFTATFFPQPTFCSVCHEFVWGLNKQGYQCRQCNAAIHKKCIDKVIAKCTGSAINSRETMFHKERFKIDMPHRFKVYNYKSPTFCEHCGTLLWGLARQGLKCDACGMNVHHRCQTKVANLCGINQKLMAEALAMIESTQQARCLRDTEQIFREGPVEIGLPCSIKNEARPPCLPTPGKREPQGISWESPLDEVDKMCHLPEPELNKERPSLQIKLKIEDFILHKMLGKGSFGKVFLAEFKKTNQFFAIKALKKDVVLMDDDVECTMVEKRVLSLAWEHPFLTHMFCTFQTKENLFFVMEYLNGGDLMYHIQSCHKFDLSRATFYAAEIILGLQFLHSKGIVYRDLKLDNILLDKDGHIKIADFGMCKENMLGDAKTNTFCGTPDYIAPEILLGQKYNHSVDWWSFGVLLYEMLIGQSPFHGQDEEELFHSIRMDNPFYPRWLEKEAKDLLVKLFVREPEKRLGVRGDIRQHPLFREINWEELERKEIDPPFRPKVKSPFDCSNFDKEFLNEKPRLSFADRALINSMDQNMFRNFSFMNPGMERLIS
T2 sequence (Q05655 whole entry): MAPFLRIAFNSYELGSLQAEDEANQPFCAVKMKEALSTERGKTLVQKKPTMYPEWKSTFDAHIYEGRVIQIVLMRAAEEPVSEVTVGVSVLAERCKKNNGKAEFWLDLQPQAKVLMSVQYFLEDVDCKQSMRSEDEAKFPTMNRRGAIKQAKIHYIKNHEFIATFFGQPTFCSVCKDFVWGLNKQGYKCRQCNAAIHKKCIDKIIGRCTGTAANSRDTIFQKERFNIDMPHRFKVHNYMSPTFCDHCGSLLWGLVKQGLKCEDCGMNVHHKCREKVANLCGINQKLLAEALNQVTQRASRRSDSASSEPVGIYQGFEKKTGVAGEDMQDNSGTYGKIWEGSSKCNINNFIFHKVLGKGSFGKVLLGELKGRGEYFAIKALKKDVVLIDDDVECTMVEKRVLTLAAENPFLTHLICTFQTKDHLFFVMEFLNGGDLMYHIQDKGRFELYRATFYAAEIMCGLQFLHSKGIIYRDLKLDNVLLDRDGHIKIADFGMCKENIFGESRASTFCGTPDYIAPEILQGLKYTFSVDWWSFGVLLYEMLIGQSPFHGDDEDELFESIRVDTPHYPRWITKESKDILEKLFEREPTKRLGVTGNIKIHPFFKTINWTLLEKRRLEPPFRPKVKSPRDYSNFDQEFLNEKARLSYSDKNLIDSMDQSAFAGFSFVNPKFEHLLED

| pKi (PKCθ) | pKi (PKC delta) | pKi (PKC alpha) | IC50-SGK1 (SGK kinase) | pIC50 (SGK kinase) | Compound |
| --- | --- | --- | --- | --- | --- |
| > 6.00 | < 6.00 | < 5.00 | Inactive | – | Fc1ccc(Cl)cc1CNc1ncc2nc(-c3c(Cl)cccc3Cl)n(C[C@@H]3CCCNC3)c2n1 [Compound 106] |
| > 5.00 | < 6.00 | < 5.00 | Inactive | – | NCCCCCCn1c(-c2ccccc2Cl)nc2cnc(NCc3ccccc3F)nc21 [Compound 207] |
| > 6.00 | < 6.00 | < 6.00 | Inactive | – | Fc1ccc(CNc2ncc3c(n2)C(C[C@H]2CCNC2)C(c2c(Cl)cccc2Cl)=N3)cc1 (stereo partly shown) [Compound 130] |
| > 6.00 | < 6.00 | < 6.00 | Inactive | – | Fc1ccccc1CNc1ncc2nc(-c3c(Cl)cccc3Cl)n(CCC3CCCNC3)c2n1 (stereo not shown) [Compound 164] |
| > 6.00 | < 6.00 | < 6.00 | Inactive | – | Fc1ccc(CNc2ncc3nc(-c4c(F)cccc4Cl)n(C[C@@H]4CCCNC4)c3n2)c(F)c1 [Compound 144] |
| > 6.00 | < 6.00 | < 6.00 | Inactive | – | C[C@H](Nc1ncc2nc(-c3c(Cl)cccc3Cl)n(CC3CCNC3)c2n1)c1ccccc1F (stereo partly shown) [Compound 138] |
| > 6.00 | < 6.00 | < 6.00 | Inactive | – | Fc1ccc(Cl)cc1CNc1ncc2c(n1)C(C[C@H]1CCNC1)C(c1c(Cl)cccc1Cl)=N2 (stereo partly shown) [Compound 131] |
| > 6.00 | < 6.00 | < 6.00 | Inactive | – | Clc1cccc(Cl)c1-c1nc2cnc(NCc3cccs3)nc2n1C[C@H]1CCNC1 [Compound 170] |
| > 6.00 | < 5.00 | < 5.00 | Inactive | – | C[C@H](Nc1ncc2nc(-c3ccccc3Cl)n(C[C@@H]3CCCNC3)c2n1)c1ccccc1F [Compound 217] |
| > 6.00 | < 6.00 | < 6.00 | – | < 6.00 | Fc1ccccc1CNc1ncc2nc(-c3c(F)cccc3Cl)n(C[C@H]3CCNC3)c2n1 [Compound 211] |
| > 6.00 | < 6.00 | < 5.00 | – | < 5.00 | Fc1ccc(Cl)cc1CNc1ncc2nc(-c3c(F)cccc3Cl)n(C[C@@H]3CCCNC3)c2n1 [Compound 115] |
| > 6.00 | < 5.00 | < 5.00 | – | < 6.00 | Clc1cccc(Cl)c1-c1nc2cnc(NCc3ccccc3)nc2n1CCC1CCNCC1 [Compound 141] |
| > 7.00 | < 6.60 | < 6.00 | – | < 5.00 | Fc1ccc(F)c(CNc2ncc3nc(-c4c(Cl)cccc4Cl)n(C[C@@H]4CCCNC4)c3n2)c1 [Compound 104] |
| > 6.00 | < 6.00 | < 6.00 | Inactive | – | Fc1cccc(CNc2ncc3nc(-c4c(F)cccc4Cl)n(C[C@H]4CCNC4)c3n2)c1 [Compound 205] |
| > 7.00 | < 6.00 | < 6.00 | Inactive | – | Fc1ccc(CNc2ncc3nc(-c4c(Cl)cccc4Cl)n(C[C@@H]4CCCNC4)c3n2)c(F)c1 [Compound 109] |

Continued, molecule first:

| Compound | pKi (PKCθ) | pKi (PKC delta) | pKi (PKC alpha) | IC50-SGK1 (SGK kinase) | pIC50 (SGK kinase) |
| --- | --- | --- | --- | --- | --- |
| Fc1ccc(CNc2ncc3nc(-c4c(Cl)cccc4Cl)n(CC4CCNC4)c3n2)c(F)c1 (stereo not shown) [Compound 172] | > 6.00 | < 6.00 | < 6.00 | Inactive | – |
| Fc1ccccc1CNc1ncc2nc(-c3c(Cl)cccc3Cl)n(CC3CCNC3)c2n1 (stereo not shown) [Compound 150] | > 6.00 | < 6.00 | < 6.00 | Inactive | – |
| Fc1ccc(CNc2ncc3nc(-c4c(Cl)cccc4Cl)n(CC4CCNC4)c3n2)cc1F (stereo not shown) [Compound 142] | > 6.00 | < 6.00 | < 6.00 | – | < 5.00 |
| Fc1cccc(CNc2ncc3nc(-c4c(Cl)cccc4Cl)n(CCC4CCNCC4)c3n2)c1 [Compound 126] | > 6.00 | < 6.00 | < 6.00 | – | < 6.00 |
| Fc1cccc(Cl)c1-c1nc2cnc(NCc3cc(Cl)cc(Cl)c3)nc2n1C[C@@H]1CCCNC1 [Compound 200] | > 5.00 | < 6.00 | < 5.00 | Inactive | – |
| Fc1cccc(CNc2ncc3nc(-c4c(Cl)cccc4Cl)n(C[C@H]4CCNC4)c3n2)c1 [Compound 127] | > 6.00 | < 6.00 | < 6.00 | Inactive | – |
| Clc1cccc(Cl)c1-c1nc2cnc(NCc3ccccc3)nc2n1CC1CCNC1 (stereo not shown) [Compound 151] | > 6.00 | < 6.00 | < 6.00 | – | < 5.00 |
| Fc1ccccc1CNc1ncc2nc(-c3c(F)cccc3Cl)n(C[C@H]3CCCNC3)c2n1 [Compound 162] | > 6.00 | < 5.00 | < 6.00 | Inactive | – |
| Fc1ccc(CNc2ncc3nc(-c4c(Cl)cccc4Cl)n(CCC4CCNCC4)c3n2)cc1 [Compound 163] | > 6.00 | < 6.00 | < 6.00 | Inactive | – |
| Clc1cccc(CNc2ncc3nc(-c4c(Cl)cccc4Cl)n(C[C@H]4CCNC4)c3n2)c1 [Compound 135] | > 6.00 | < 6.00 | < 6.00 | Inactive | – |
| Fc1ccc(CNc2ncc3nc(-c4ccccc4Cl)n(C[C@@H]4CCCNC4)c3n2)cc1F [Compound 136] | > 6.00 | < 6.00 | < 6.00 | Inactive | – |
| Fc1ccc(CNc2cc3c(cn2)nc(-c2c(F)cccc2Cl)n3C[C@@H]2CCNC2)cc1Cl [Compound 155] | > 6.00 | < 6.00 | < 6.00 | Inactive | – |
| Fc1ccccc1CNc1ncc2nc(-c3ccccc3Cl)n(CCC3CCNCC3)c2n1 [Compound 240] | > 6.00 | < 6.00 | < 5.00 | Inactive | – |
| Fc1ccc(Cl)cc1CNc1ncc2nc(-c3c(Cl)cccc3Cl)n(C[C@@H]3CCCNC3)c2n1 [Compound 102] | > 7.00 | < 6.00 | < 6.00 | – | < 5.00 |
| Fc1ccc(F)c(CNc2ncc3nc(-c4c(Cl)cccc4Cl)n(CC4CCNC4)c3n2)c1 (stereo not shown) [Compound 161] | > 7.00 | < 6.60 | < 6.60 | – | < 5.00 |
| Fc1ccc(CNc2ncc3nc(-c4c(F)cccc4Cl)n(C[C@@H]4CCCNC4)c3n2)cc1Cl [Compound 108] | > 6.00 | < 6.00 | < 6.00 | Inactive | – |
| Clc1cccc(Cl)c1-c1nc2cnc(NCc3ccccc3)nc2n1C[C@H]1CCNC1 [Compound 133] | > 6.00 | < 6.00 | < 6.00 | Inactive | – |
| Fc1ccc(F)c(CNc2ncc3nc(-c4c(F)cccc4Cl)n(C[C@@H]4CCCNC4)c3n2)c1 [Compound 124] | > 6.00 | < 6.00 | < 6.00 | – | < 5.00 |
| Fc1ccccc1CNc1ncc2nc(-c3c(Cl)cccc3Cl)n(CC3CCCNC3)c2n1 (stereo not shown) [Compound 117] | > 6.00 | < 6.00 | < 6.00 | Inactive | – |
| NCCN1CCC(n2c(-c3c(Cl)cccc3Cl)nc3cnc(NCc4ccccc4F)nc32)CC1 [Compound 143] | > 6.00 | < 6.00 | < 6.00 | Inactive | – |
| Fc1ccc(CNc2ncc3nc(-c4c(Cl)cccc4Cl)n(CCC4CCNCC4)c3n2)cc1F [Compound 118] | > 6.00 | < 6.00 | < 6.00 | – | < 5.00 |
| CC(Nc1ncc2nc(-c3c(Cl)cccc3Cl)n(CCC3CCNCC3)c2n1)c1ccccc1 (stereo not shown) [Compound 212] | > 5.00 | < 5.00 | < 5.00 | Inactive | – |
| Fc1ccc(CNc2ncc3nc(-c4c(F)cccc4Cl)n(CC4CCNC4)c3n2)cc1F (stereo not shown) [Compound 223] | > 6.00 | < 6.00 | < 6.00 | – | < 5.00 |
| Fc1ccc(CNc2ncc3nc(-c4ccccc4Cl)n(C[C@@H]4CCCNC4)c3n2)c(F)c1 [Compound 210] | > 5.00 | < 6.00 | < 5.00 | Inactive | – |
| Fc1ccc(CNc2ncc3nc(-c4c(Cl)cccc4Cl)n(CCC4CCNCC4)c3n2)c(F)c1 [Compound 148] | > 6.00 | < 6.00 | < 6.00 | – | < 5.00 |
| C[C@H](Nc1ncc2nc(-c3c(Cl)cccc3Cl)n(C[C@@H]3CCCNC3)c2n1)c1ccccc1F [Compound 116] | > 6.00 | < 6.00 | < 5.00 | Inactive | – |
| Fc1cccc(CNc2ncc3nc(-c4c(Cl)cccc4Cl)n(CC4CCNC4)c3n2)c1 (stereo not shown) [Compound 147] | > 6.00 | < 6.00 | < 6.00 | Inactive | – |
| Fc1ccccc1CNc1ncc2nc(-c3c(Cl)cccc3Cl)n(C[C@@H]3CCCNC3)c2n1 [Compound 110] | > 7.00 | < 6.00 | < 6.00 | – | < 6.00 |

Source: patent publication US20110046131A1, “PURINES AS PKC-THETA INHIBITORS” (N.V. Organon and Pharmacopeia, LLC, priority 2006, published 2011)
